According to US7456292B2, “Hydroxamic acid-containing amino acid derivatives” (Bexel Pharmaceuticals, Inc., priority 2005, dated 2008):
Counter-ions that a name gives are not always drawn.

How the values were obtained:
TNF-α [1] = test: LPS induced TNF-α in hPBMC; format: cell-based; conditions: Homo sapiens, read-out: Inhibition (%) TNF-α
Experimental: (§1) Human PBMC monocyte cells were cultured and incubated with compounds at different concentrations. Cells were then challenged with lipopolysaccharides (LPS) at a concentration of (1 μg/mL) for 24 hours. Cell supernatants were then analyzed for the presence of TNF-α, IL-6 and IL-1β cytokines by antibody directed enzyme-linked immunoassay. Dexamethasone was used as a positive control in the experiments.

[2] = tested on: carrageenan induced paw inflammation; test: Carrageenan induced inflammation in rats; format: in vivo; conditions: Sprague-Dowley rats, 50 mg/kg oral, paw volume after 2 and 3 hours
Experimental: Sprague-Dowley rats with average weight of 250 g (6-7 weeks of age) were randomized in three groups, and given 50 mg/kg oral dose of compound of example 6. Thirty minutes later carrageenan was administered in the sub-planter region of right hind paws. The control group received equal volume of water without any compound. Paw volume was measured after 2 and 3 hours. Dexamethasone at a concentration of 5 mg/kg was used as a positive control in this experiment.

TNF-α [3] = test: LPS induced sepsis model in mice, serum TNF-α; format: in vivo; conditions: Mus musculus, SW mice, serum after 90 min
Experimental: (§2) SW mice were orally treated with vehicle, dexamethasone (5 mg/kg) and compounds at a dose of 50 mg/kg body weight one hour before LPS injection (10 μg/mouse, ip) and blood was collected after 90 min and measured serum TNF-α and IL-6 levels by ELISA.

[4] = tested on: Collagen Induced Arthritis Model; test: Collagen induced arthritis model; format: in vivo; conditions: male DBA/1 Lac mice, oral 50 mg/kg daily
Experimental: Arthritis induced in male DBA/1 Lac mice with bovine collagen (100 μg/mouse). Booster dose was given on Day 21 and started treatment when clinical score was about 2. […] Dexamethasone was kept as positive control. Severity of each paw score was defined from 0=no erythma to 4=severe arthritis for the swollen paws with a maximum possible score of 16 for 4 paws (4×4) in one animal.

TNF-α [5] = test: LPS induced TNF-α in THP-1 monocytic cells; format: cell-based; conditions: Homo sapiens, LPS 1 μg/mL 24 hours
Experimental: as §1, with “THP-1” for “PBMC”, “TNF-α” for “TNF-α, IL-6 and IL-1β”, “immunoassay from R & D System, Minneapolis, USA.” for “immunoassay. Dexamethasone was used as a positive control in the experiments.”

gamma interferon = test: Myelin basic protein (MBP) induced gamma interferon in lymph node cultures; format: cell-based; conditions: MBP stimulated lymph node cells of SJL mice, 72 h, ELISA
Experimental: (§3) FIG. 6: Inhibition of myelin basic protein (MBP) induced […] mice were immunized with 400 μg of myelin basic protein (MBP) in CFA on day 0 and 7 and regional lymph nodes were harvested on day 14 and cultured with MBP in the presence or absence of compound 22 for 72 h. Lymphocyte proliferation was determined by thymidine incorporation assay. Cell culture supernatants from MBP stimulated and compound 22 treated cells were assayed for gamma interferon using ELISA.

Lymphocyte proliferation = test: MBP induced lymphocyte proliferation (thymidine incorporation); format: cell-based; conditions: MBP stimulated lymph node cells of SJL mice, 72 h
Experimental: as §3

[6] = tested on: intestinal bowel disease (IBD) induced by dextran sodium sulphate (DSS); test: DSS induced inflammatory bowel disease in mice; format: in vivo; conditions: male SW mice, 4% DSS, daily dose 50 mg/kg body weight in PEG400
Experimental: DAI is comprised of factors such as body weight, stool quality and occult blood content. A 4% solution of DSS was provided as drinking water and DAI was monitored twice a week for the induction of disease. Following this the animals were treated with a daily dose 50 mg/kg body weight of compound 22 in PEG400 formulations and the activity index was monitored twice a week.

IL-12 (p40) = test: CD40 ligand-mediated synthesis of IL-12 (p40) in mouse peritoneal macrophages; format: cell-based; conditions: mouse peritoneal macrophages stimulated with 2 μg/mL soluble CD40 ligand
Experimental: To further confirm the inhibition of IL-12 secretion mediated by CD40, induction of IL-12 (p40) was examined following activation of macrophages by soluble CD40 ligand, CD 154. Mouse peritoneal macrophages, were stimulated with 2 μg/mL of soluble […] (Immunex) in the presence of compound 22.

IL-1β = test: LPS induced IL-1β in hPBMC; format: cell-based; conditions: Homo sapiens, LPS 1 μg/mL 24 hours
Experimental: as §1

IL-6 [7] = test: LPS induced sepsis model in mice, serum IL-6; format: in vivo; conditions: Mus musculus; SW mice, oral 5 mg/kg bw one hour before LPS, serum after 90 min
Experimental: as §2

IL-6 [8] = test: LPS induced IL-6 in hPBMC; format: cell-based; conditions: Homo sapiens, LPS 1 μg/mL 24 hours
Experimental: as §1

IL-12 = IL-12 secretion following LPS stimulation of mouse spleenic macrophages; format: cell-based; conditions: mouse splenic macrophages stimulated with LPS for 72 hrs
From the text: Compound 6 of this class inhibited IL-12 production in mouse splenic macrophages stimulated with LPS for 72 hrs.

T cell proliferation = test: Inhibition of T cell proliferation; format: cell-based, mice
Experimental: SJL mice were immunized with keyhole limpet hemocyanin (KLH) in complete Freund's adjuvant (CFA). 12 days later regional lymph nodes were isolated and a proliferative response to KLH in the presence or absence of drug was performed (in presence of 3H thymidine). The results are expressed at Stimulation index (CPM+antigen/CPM no antigen). Similarly, mitogen induced concanavalin A (CON-A), IL-4, IL-2 induced T cell proliferation was measured in presence of compounds are shown in Table VI.

[9] = hPBMC, 10 μM, LPS 1 μg/mL 24 hours, * average of two experiments

Structure (SMILES): CC(C)OC(=O)C(N)Cc1ccc(Oc2ccc(C(=O)NO)cc2)cc1 (stereo not shown) [Compound 16, 2-Amino-3-[4-(4-hydroxycarbamoylphenoxy)-phenyl]-propionic acid isopropyl ester]
- inhibition at 10 µM (TNF-α [1]; [9]): 69.2%
- inflammation induced by carrageenan (paw volume) [2]: substantially lower the inflammation induced by carrageenan

Structure (SMILES): CN(C)C(=O)[C@@H](N)Cc1ccc(Oc2ccc(C(=O)NO)cn2)cc1 [Compound 21, L-6-[4-(2-amino-2-dimethylcarbamoyl-ethyl)-phenoxy]-N-hydroxy-nicotinamide hydrochloride]
- inhibition at 10 µM (TNF-α [1]; [9]): 36.1%

Structure (SMILES): Cl.NC(Cc1ccc(Oc2ccc(C(=O)NO)cc2)cc1)C(=O)O (stereo not shown) [Compound 9, 2-amino-3-[4-(4-hydroxycarbamoyl-phenoxy)-phenyl]-propionic acid hydrochloric acid salt]
- inhibition at 50 mg/kg (TNF-α [3]; oral 50 mg/kg body weight one hour before LPS): 45%
- arthritic scores [4]: significantly improved the arthritic scores
- inhibition at 10 µM (TNF-α [5]): 20%

Structure (SMILES): CC(C)OC(=O)C(N)Cc1ccc(Oc2ccc(C(=O)O)cc2)cc1 (stereo not shown) [Compound 15, 4-[4-(2-Amino-2-isopropoxycarbonylethyl)-phenoxy]-benzoicacid]
- inhibition at 10 µM (TNF-α [1]; [9]): 40.1%

Structure (SMILES): NC(Cc1ccc(Oc2ccc(C(=O)NO)cc2)cc1)C(=O)[O-].[Na+] (stereo not shown) [Compound 22, 2-amino-3-[4-(4-hydroxycarbamoyl-phenoxy)-phenyl]-propionic acid sodium salt]
- gamma interferon levels (gamma interferon): decrease in gamma interferon levels
- T cell proliferative response (Lymphocyte proliferation): normal T cell proliferative response
- inhibition at 10 µM (TNF-α [1]; 24 h): 40%
- arthritic scores [4]: significantly improved the arthritic scores
- disease activity index (DAI) [6]: lowering of disease activity index
- inhibition of IL-12 (p40) (IL-12 (p40)): prominent inhibition of IL-12

Structure (SMILES): C[C@@H]1C[C@H]2[C@@H]3CCC4=CC(=O)C=C[C@]4(C)[C@@]3(F)[C@@H](O)C[C@]2(C)[C@@]1(O)C(=O)CO [Dexamethasone, reference compound]
- inhibition at 10 µM (IL-1β): 26%
- inhibition at 5 mg/kg (TNF-α [3]; oral 5 mg/kg bw one hour before LPS): 70%
- inhibition at 10 µM (TNF-α [1]; [9]): 42%
- inhibition at 5 mg/kg (IL-6 [7]): 50%
- inhibition at 10 µM (TNF-α [5]): 70%
- inhibition at 10 µM (IL-6 [8]): 14%

Structure (SMILES): Cc1ccc(S(=O)(=O)NC(Cc2ccc(Oc3ccc(C(=O)NO)cc3)cc2)C(=O)N(C)C)cc1 (stereo not shown) [Compound 14, 4-{4-[2-Dimethylcarbamoyl-2-(toluene-4-sulfonylamino)-ethyl]-phenoxy}-N-hydroxy-benzamide]
- inhibition at 10 µM (TNF-α [1]; [9]): 22%

Structure (SMILES): CS(=O)(=O)c1ccc(C2=C(c3ccccc3)C(=O)OC2)cc1 [rofecoxib, reference compound]
- IL-12 production (IL-12): no effect was observed
- effect on T cells (proliferation) (T cell proliferation): did not show any effect on T cells
